The results in this text go back to the supplement of paper PMC11208160.
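Also: IS621 recombinase and bridge RNA in Escherichia coli cells.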

The nature of this data set: recombinant barcode read abundance after kanamycin selection (control-corrected) (log10(CPM+1)); higher = more efficient recombination; sequences stand for … in AGTGCAGAGAAAATCGGCCAGTTTTCTCTGCCTGCAGTCCGCATGCCGT…AGATTTATGCAGCGGACTGCCTTTCTCCCAAAGTGATAAACCGGACAGTATCATGGACCGGTTTTCCCGGTAATCCGTATTTGCAAGGTTGGTTTCACT; site = the 11-nt target. The procedure, abridged:
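Values are log10(CPM+1) from a pooled E. coli screen of targets paired with IS621 bridge RNA target-binding loops. Recombination efficiency here means counts per million of recombinant-junction barcodes, averaged and control-corrected. Plates were chloramphenicol/ampicillin LB agar for the control and chloramphenicol/ampicillin/kanamycin with 0.1 mM IPTG, two replicates each.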
Regarding “AGGGCGCCTTGGGTTCTAACCTGTTGCCT (site AAGGCGCCTAG)”, the “recombinant barcode read abundance (log10)” value was 0.0579.
The value for “AGGGCGCCTTGGGTTCTAACCTGTTGCCT (site ACGGCGCCTAG)” was 0.173; that for “AGGGCGCCTTGGGTTCTAACCTGTTGCCT (site AGGGCGCCTAG)” was 1.63.
As to “AGGGCGCCTTGGGTTCTAACCTGTTGCCT (site ATGGCGCCTAG)”, the “recombinant barcode read abundance (log10)” value turned out to be 0.122.
For the sequence “AGGGGTCCTTGGGTTCTAACCTGTTGCAT (site AGGGGTCCTAT)”, the “recombinant barcode read abundance (log10)” value was 2.72.
On to “AGGGGTCCTTGGGTTCTAACCTGTTGCAT (site TGGGATCCTAT)”, for which the “recombinant barcode read abundance (log10)” value amounted to 0.482.
Turning to “AGGGTACCTTGGGTTCTAACCTGTTGCAG (site AGGGTACCTCT)”, the “recombinant barcode read abundance (log10)” value was determined as 2.52.
Then “AGGGTACCTTGGGTTCTAACCTGTTGCAG (site GAATCGACTAG)”, with 0.0315; and “AGGGTAGCTTGGGTTCTAACCTGTTGCCT (site AGGGAAGCTAG)”, with 0.101; and “AGGGTAGCTTGGGTTCTAACCTGTTGCCT (site AGGGCAGCTAG)”, with 0.224.
For the sequence “AGGGTAGCTTGGGTTCTAACCTGTTGCCT (site AGGGGAGCTAG)”, the “recombinant barcode read abundance (log10)” value came out at 0.163.
Then “AGGGTAGCTTGGGTTCTAACCTGTTGCCT (site AGGGTAGCTAG)”, with 1.04; and “AGGTATGCTTGGGTTCTAACCTGTTGCCT (site AGGTATGCTAG)”, with 1.35.
For “AGGTATGCTTGGGTTCTAACCTGTTGCCT (site AGGTCTGCTAG)”, the “recombinant barcode read abundance (log10)” value stood at 0.0877.
The value for “AGGTATGCTTGGGTTCTAACCTGTTGCCT (site AGGTGTGCTAG)” was 0.51.
“AGGTATGCTTGGGTTCTAACCTGTTGCCT (site AGGTTTGCTAG)”: the “recombinant barcode read abundance (log10)” value stood at 0.248.
Then “AGGTCTACTTGGGTTCTAACCTGTTGCAC (site AGGTCTACTGT)”, with 0.521; and “AGGTCTACTTGGGTTCTAACCTGTTGCAC (site GTCCTATCTTA)”, with 0.13; and “AGGTCTACTTGGGTTCTAACCTGTTGCTT (site AGGTCTACTAA)”, with 0.296.
Turning to “AGGTCTACTTGGGTTCTAACCTGTTGCTT (site GAACGCTCTTG)”, the “recombinant barcode read abundance (log10)” value was 0.171.
On to “AGGTTCCCTTGGGTTCTAACCTGTTGCTC (site AGGTTCCCTAA)”, for which the “recombinant barcode read abundance (log10)” value was 0.243.
Then “AGGTTCCCTTGGGTTCTAACCTGTTGCTC (site AGGTTCCCTCA)”, with 0.101; and “AGGTTCCCTTGGGTTCTAACCTGTTGCTC (site AGGTTCCCTGA)”, with 1.45.
With “AGGTTCCCTTGGGTTCTAACCTGTTGCTC (site AGGTTCCCTTA)”, the “recombinant barcode read abundance (log10)” value stood at 0.026.
Then “AGTAAGCCTTGGGTTCTAACCTGTTGCCA (site AGTAAGCCTTG)”, with 0.33; and “AGTAAGCCTTGGGTTCTAACCTGTTGCCA (site AGTAAGGCTAG)”, with 0.113; and “AGTAAGGCTTGGGTTCTAACCTGTTGCCT (site AGTAAGCCTTG)”, with 0.44.
The value for “AGTAAGGCTTGGGTTCTAACCTGTTGCCT (site AGTAAGGCTAG)” was 0.0834.
Then “AGTACAACTTGGGTTCTAACCTGTTGCCT (site AGAACAACTAG)”, with 0.134; and “AGTACAACTTGGGTTCTAACCTGTTGCCT (site AGCACAACTAG)”, with 0.153; and “AGTACAACTTGGGTTCTAACCTGTTGCCT (site AGGACAACTAG)”, with 0.0508.
As to “AGTACAACTTGGGTTCTAACCTGTTGCCT (site AGTACAACTAG)”, the “recombinant barcode read abundance (log10)” value came to 0.237.
“AGTAGGACTTGGGTTCTAACCTGTTGCAG (site AGCAGGGCTCT)”: the “recombinant barcode read abundance (log10)” value amounted to 0.474.
The value for “AGTAGGACTTGGGTTCTAACCTGTTGCAG (site AGTAGGACTCT)” was 2; that for “AGTAGTGCTTGGGTTCTAACCTGTTGCCT (site AATAGTGCTAG)” was 0.186; that for “AGTAGTGCTTGGGTTCTAACCTGTTGCCT (site ACTAGTGCTAG)” was 0.0779.
The value for “AGTAGTGCTTGGGTTCTAACCTGTTGCCT (site AGTAGTGCTAG)” was 0.0473.
With “AGTAGTGCTTGGGTTCTAACCTGTTGCCT (site ATTAGTGCTAG)”, the “recombinant barcode read abundance (log10)” value came out at 0.0347.
Turning to “AGTATATCTTGGGTTCTAACCTGTTGCCT (site AGTATATCTAG)”, the “recombinant barcode read abundance (log10)” value is 0.121.
Then “AGTATATCTTGGGTTCTAACCTGTTGCCT (site GGCATATCTAG)”, with 0.171; and “AGTATCCCTTGGGTTCTAACCTGTTGCCG (site AGTATCCCTCG)”, with 0.461.
The value for “AGTATCCCTTGGGTTCTAACCTGTTGCCG (site GTCTCATCTAT)” was 0.2; that for “AGTATGACTTGGGTTCTAACCTGTTGCCT (site AGTATGACTAG)” was 0.923; that for “AGTATGACTTGGGTTCTAACCTGTTGCCT (site CGTATGACTAG)” was 0.304.
In the case of “AGTATGACTTGGGTTCTAACCTGTTGCCT (site GGTATGACTAG)”, the “recombinant barcode read abundance (log10)” value was 0.0345.
The value for “AGTATGACTTGGGTTCTAACCTGTTGCCT (site TGTATGACTAG)” was 0.0581; that for “AGTCATACTTGGGTTCTAACCTGTTGCTT (site AGTCATACTAA)” was 0.199.
Then “AGTCATACTTGGGTTCTAACCTGTTGCTT (site AGTCGGACTAA)”, with 0.0739; and “AGTCGACCTTGGGTTCTAACCTGTTGCCT (site AGTCGACCTAG)”, with 1.78.
The value for “AGTCGACCTTGGGTTCTAACCTGTTGCCT (site CGTCGACCTAG)” was 0.328; that for “AGTCGACCTTGGGTTCTAACCTGTTGCCT (site GGTCGACCTAG)” was 0.112; that for “AGTCGACCTTGGGTTCTAACCTGTTGCCT (site TGTCGACCTAG)” was 0.143.
In the case of “AGTCGTTCTTGGGTTCTAACCTGTTGCCT (site AGTCGTTCTAG)”, the “recombinant barcode read abundance (log10)” value worked out at 0.23.
The value for “AGTCGTTCTTGGGTTCTAACCTGTTGCCT (site GAGTTCACTCT)” was 0.141.
“AGTCTAGCTTGGGTTCTAACCTGTTGCCC (site AGTCTAGCTAG)”: the “recombinant barcode read abundance (log10)” value was 0.421.
Then “AGTCTAGCTTGGGTTCTAACCTGTTGCCC (site AGTCTAGCTCG)”, with 1.16; and “AGTCTAGCTTGGGTTCTAACCTGTTGCCC (site AGTCTAGCTGG)”, with 1.11; and “AGTCTAGCTTGGGTTCTAACCTGTTGCCC (site AGTCTAGCTTG)”, with 0.149.
“AGTCTAGCTTGGGTTCTAACCTGTTGCTC (site AGTCTAGCTGA)”: the “recombinant barcode read abundance (log10)” value is 0.336.
The value for “AGTCTAGCTTGGGTTCTAACCTGTTGCTC (site AGTCTAGCTTA)” was 0.62; that for “AGTCTGCCTTGGGTTCTAACCTGTTGCTG (site AGTCTGCCTCA)” was 0.686.
For “AGTCTGCCTTGGGTTCTAACCTGTTGCTG (site GCCGATACTTG)”, the “recombinant barcode read abundance (log10)” value was determined as 0.0929.
For “AGTCTGGCTTGGGTTCTAACCTGTTGCCT (site AGTCTGGCTAG)”, the “recombinant barcode read abundance (log10)” value came to 0.146.
“AGTCTGGCTTGGGTTCTAACCTGTTGCCT (site TGTCTGGCTAG)”: the “recombinant barcode read abundance (log10)” value is 0.108.
Turning to “AGTGACTCTTGGGTTCTAACCTGTTGCCT (site AGTCTCTCTAG)”, the “recombinant barcode read abundance (log10)” value came to 0.0765.
Consider “AGTGACTCTTGGGTTCTAACCTGTTGCCT (site AGTGACTCTAG)”, for which the “recombinant barcode read abundance (log10)” value worked out at 2.32.
Then “AGTTCCACTTGGGTTCTAACCTGTTGCCT (site AGTTACACTAG)”, with 0.0694; and “AGTTCCACTTGGGTTCTAACCTGTTGCCT (site AGTTCCACTAG)”, with 0.324.
Turning to “AGTTCCACTTGGGTTCTAACCTGTTGCCT (site AGTTGCACTAG)”, the “recombinant barcode read abundance (log10)” value was 0.0253.
Then “AGTTCCACTTGGGTTCTAACCTGTTGCCT (site AGTTTCACTAG)”, with 0.102.
Take “AGTTCGTCTTGGGTTCTAACCTGTTGCCG (site AGCTCGTCTCC)”: the “recombinant barcode read abundance (log10)” value amounted to 0.29.
Then “AGTTCGTCTTGGGTTCTAACCTGTTGCCG (site AGTTCGTCTCG)”, with 0.314.
“AGTTCTCCTTGGGTTCTAACCTGTTGCCG (site AGTTCTCCTCG)”: the “recombinant barcode read abundance (log10)” value amounted to 0.0496.
As for “AGTTCTCCTTGGGTTCTAACCTGTTGCCG (site GAGCAGGCTAA)”, the “recombinant barcode read abundance (log10)” value was determined as 0.0339.
Regarding “AGTTGTCCTTGGGTTCTAACCTGTTGCAT (site AGTTGTCCTAA)”, the “recombinant barcode read abundance (log10)” value turned out to be 0.0625.
Then “AGTTGTCCTTGGGTTCTAACCTGTTGCAT (site AGTTGTCCTAC)”, with 0.0713.
For “AGTTGTCCTTGGGTTCTAACCTGTTGCAT (site AGTTGTCCTAG)”, the “recombinant barcode read abundance (log10)” value was 0.0326.
